Laboratory results published in patent US10028992B2, “Methods of treating muscular dystrophy” (BOARD OF REGENTS OF THE NEVADA SYSTEM OF HIGHER EDUCATION …, priority 2012, dated 2018).
Like-named read-outs stand apart in the source and are kept apart here.

Tested on: α7 integrin promoter
Assay: muscle cell-based assay: α7βgal+/− myoblasts/myotubes, LacZ reporter, β-galactosidase cleavage of FDG
Parameters: species or system mouse
Details: for EC50: Mus musculus, read-out: EC50; for α7 integrin expression in muscle: screen of DIVERSet library; for Results in a α7+/− β-galactosidase assay, Myotubes, 0.5 uM: compound at 0.5 uM; for Results in a α7+/− β-galactosidase assay, Myotubes, 1 uM: compound at 1 uM; for Results in a α7+/− β-galactosidase assay, Myotubes, 5 uM: compound at 5 uM; for Results in a α7+/− β-galactosidase assay, Myotubes, 10 uM: compound at 10 uM; for Results in a α7+/− β-galactosidase assay, Myotubes, 20 uM: compound at 20 uM; for Results in a α7+/− β-galactosidase assay, Myotubes, 40 uM: compound at 40 uM
Description: An α7 integrin null mouse was produced in which exon 1 of the gene encoding the α7 integrin was replaced by the LacZ reporter. In these mice, all the transcriptional regulatory elements of the α7 integrin promoter were retained, allowing β-galactosidase to report expression of 7 integrin. A primary myoblast cell line (designated α7βgal^+/−) isolated from 10 day old α7^+/− pups were analyzed for the ability of β-galactosidase to report α7 integrin expression. α7βgal^+/− myoblasts were differentiated and subjected to X-gal staining and western analysis (FIGS. 1A and 1B).
The activity of the α7 integrin promoter was measured by β-galactosidase cleavage of the non-fluorescent compound fluorescein di-β-D-galactopyranoside (FDG) to fluorescein. This assay was used to screen compound libraries to identify molecules that up-regulate α7 integrin expression in muscle.
Also evaluated was the effect of various isoforms of laminin and the ligand for α7β1 integrin on integrin expression. Positive hits were subjected to dose-response analysis, western analysis and a myostatin counterscreen (a negative regulator of muscle growth).

[1] = enhancement of α7 integrin expression in muscle cells

Compound	EC50 [1]	Optimal Concentration [1]	α7 integrin expression in muscle	EC50 (Myotube, α7βgal+/− myotubes, dose-response)	Results in a α7+/− β-galactosidase assay, Myotubes, 0.5 uM	Results in a α7+/− β-galactosidase assay, Myotubes, 1 uM	Results in a α7+/− β-galactosidase assay, Myotubes, 5 uM	Results in a α7+/− β-galactosidase assay, Myotubes, 10 uM	Results in a α7+/− β-galactosidase assay, Myotubes, 20 uM	Results in a α7+/− β-galactosidase assay, Myotubes, 40 uM
CCC(=O)c1ccccc1OCCCN1CCN(C)CC1.Cl [Compound ID# 1002, 1-{2-[3-(4-methyl-1-piperazinyl)propoxy]Phenyl}-1-propanone hydrochloride]	1.5 µM	12.5 μm	increased	–	–	–	–	–	–	–
CCC(=O)c1ccccc1OCCCN1CCCCC1.Cl [Compound ID# 1003, 1 {2-[3-(1-piperidinyl)propoxy}phenyl}-1-propanone hydrochloride]	5 µM	25 μm	increased	–	–	–	–	–	–	–
CC(=O)N(O)CCCCCNC(=O)CCC(=O)N(O)CCCCCNC(=O)CCC(=O)N(O)CCCCCN [Deferoxamine, deferoxamine, reference compound]	10 µM	20 μm	–	10 µM	–	–	–	–	–	–
O=C(CNC(=O)c1cccc(F)c1)N/N=C/c1cc(Br)ccc1OCc1ccccc1 [drawing 311]	–	–	–	–	−0.0152	0.1201	0.07121	0.000591	−0.3123	−0.2936
Cc1ccccc1-n1c(S)nnc1Cc1cccs1 [drawing 312]	–	–	–	–	0.05774	0.1436	−0.03653	0.08958	−0.1182	−0.01563
CCCCN(CC)Cc1ccc(C/N=C(\S)Nc2ccccc2F)o1 [drawing 313]	–	–	–	–	0.05863	0.01354	−0.01977	0.01526	−0.2661	−0.1331
COc1ccc2c(c1)C(=C(C#N)C#N)C(=O)N2CCc1ccccc1 [drawing 314]	–	–	–	–	0.006429	0.1052	0.04228	−0.09235	−0.8051	−0.734
Cn1cc(CN(CCO)Cc2cccs2)c(-c2ccccc2F)n1 [drawing 315]	–	–	–	–	0.06985	0.09322	0.1949	0.1433	−0.3105	−0.2586
CCN1C(=O)/C(=C(/C#N)c2nc3ccccc3[nH]2)c2ccccc21 [drawing 316]	–	–	–	–	−0.1345	−0.06381	0.001992	0.06976	−0.2893	−0.2363
Cc1ccc2c(c1)/C(=C/c1ccc(F)cc1)C(=O)N2 [drawing 317]	–	–	–	–	0.09119	0.07633	0.0903	−0.07782	−0.4653	−0.4823
O=C1Nc2ccccc2/C1=C\c1ccnc2ccccc12 [drawing 318]	–	–	–	–	0.1725	0.09552	0.4005	0.4118	−0.4266	−0.342
CCc1c(C)sc(NC(=O)c2ccco2)c1C#N [drawing 319]	–	–	–	–	−0.09933	−0.00083	0.02008	0.1359	−0.1945	−0.05014
CCc1c(C)sc(NC(=O)c2ccco2)c1C#N [drawing 320]	–	–	–	–	0.1503	0.1892	0.6497	−0.03138	−0.1002	−0.1982
O=C1Nc2ccccc2/C1=C/c1ccccc1Cl [drawing 321]	–	–	–	–	0.1248	0.1803	−0.0494	−0.1957	−0.4748	−0.6409
COc1cccc(CN2CCN(Cc3ccco3)CC2)c1.O=C(O)C(=O)O [drawing 322]	–	–	–	–	0.1434	0.2622	0.003264	−0.05758	−0.1598	−0.2345
